# Assay results reported in US7332615B2, “Hydrophilic analogs of 4,8-dihydrobenzodithiophene-4,8-diones as anticancer agents” (Industrial Technology Research Institute, priority 2004, dated 2008).
# Like-named read-outs stand apart in the source and are kept apart here.
# Experiments:
# Format in all cases: cell-based
# [1] = system: p-gp-expressing epidermoid carcinoma of the nasopharynx (KB-VIN); assay: Cytotoxicity Assays Method C, KB-VIN; conditions: for IC50: 50% reduction in cell number after 72 hr of incubation; for activity against the MDR cell line KB-VIN (in words): summary of Table 3
# From the text: Cytotoxicity Assays Method C (KB, KB-VIN, AS49, HCT-8, PC-3) [K. H. Lee et. al. Planta Med. 54, 308-312 (1998), Monk A et. al. J. Natl. Cancer Inst. 83, 757-766 (1991).] The cell lines included epidermoid caninoma of the nasopharynx (KB), p-gp-expressing epidermoid caninoma of the nasopharynx (KB-VIN), lung carcinoma (A-549), ileocecal carinoma (HCT-8) and prostate cancer (PC-3) cell lines.
# [2] = system: epidermoid carcinoma of the nasopharynx (KB); assay: Cytotoxicity Assays Method C, KB; conditions: read-out: IC50 KB
# MCF-7 = assay: Cytotoxicity Assays Method A (alamarBlue anti-proliferative assay), MCF-7
# From the text: (§1) Cytotoxicity Assays Method A (HUVEC, MCF-7, HT-29, Hep 3B and NCl-H460) [S. A. Ahmed, R. M. Gogal Jr., and J. E. Walsh, Journal of Immunological Methods 170: 211-224, (1994): M. R. Boyd, Status of the NCl preclinical antitumor drug discovery screen. (Published by J. B. Lippincoft Company, Philadelphia, Pa. 19105, USA) Principles & Practices of Oncology Updates 3 # 10: 1-12, (1989); M. R. Boyd, et al. Data display and analysis strategies for the NCl disease-oriented in vitro antitumor drug screen. In: Cytotoxic anti-cancer drugs: models and concepts for drug discovery and development. Boston: Kluwer Academic, Pages; 11-34, (1992)]
# (§2) The test compounds were dissolved in 100% DMSO and then diluted with sterile distilled water to obtain initial working solutions of 20000, 2000, 200, 20 and 2 μM in 80% DMSO. A 200 fold dilution was further made in culture media to generate final assay concentrations of 100, 10, 1, 0.1 and 0.01 μM in 0.4% DMSO.
# (§3) Aliquots of 100 μl of cell suspension (about 1.5-3.0×10^3/well) were placed in 96-well microtiter plates in an atmosphere of 5% CO2 at 37° C. After 24 hours, 100 μl of growth medium and 1 μl of test solution or vehicle (80% DMSO) were added respectively per well in duplicate for an additional 72-hour incubation. Thus, the final concentration of DMSO was 0.4%. The test compounds, IIa-1, IIb-1 and VII-1 were evaluated at concentrations of 100, 10, 1, 0.1 and 0.01 μM. At the end of incubation, 20 μl of alamarBlue 90% reagent was added to each well for another 6-hour incubation before detection of cell viability by fluorescent intensity. Fluorescent intensity was measured using a Spectraflour Plus plate reader with excitation at 530 nm and emission at 590 nm.
# (§4) The measured results was calculated by the following formula: PG(%)=100×(Mean Ftest−Mean Ftime0)/(Mean Fctrl−Mean Ftime0)] If(Mean Ftest−Mean Ftime0)<0, then PG(%)=100×(Mean Ftest−Mean Ftime0)/(Mean Ftime0−Mean Fblank) wherein PG represents percent growth;
# (§5) A decrease of 50% or more (≧50%) in fluorescent intensity relative to the vehicle-treated control indicates significant cytostatic or cytotoxic activity, and semi-quantitative values for IC50, TGI and LC50 were then determined by nonlinear regression using GraphPad Prism (GraphPad Software, USA).
# (§6) IC50 (50% Inhibition Concentration); Test compound concentration where the increase from times in the number or mass of treated cells was only 50% as much as the corresponding increase in the vehicle-control at the end of experiment.
# (§7) TGI (Total Growth Inhibition): Test compound concentration where the number or mass of treated cells at the end of experiment was equal to that at time0.
# (§8) LC50 (50% Lethal Concentration): Test compound concentration where the number or mass of treated cells at the end of experiment was half that at time.
# (§9) The assays were used to detect changes in cell proliferation based on the ability of viable cells to cause alamarBlue to change from its oxidized to a reduced form. With the results obtained from the alamarBlue reaction, cell proliferation can be quantified and metabolic activity of viable cell can be examined.
# (§10) The succinate derivatives of compounds IIa-1, IIb-1 and VII-1 were tested for possible effect on the proliferation of four human tumor cell lines ˜MCF-7 (breast), HT-29 (colon), Hep3B (liver), and NCl—H 460 (lung) as well as one human umbilical vein endothelial cell (HUVEC) at assay concentration from 0.01 to 100 μM, through serial 10-fold dilution.
# [3] = Cytotoxicity Assays Method A (alamarBlue anti-proliferative assay), HUVEC; conditions: human, HUVEC (human umbilical vein endothelial cells), 72-hour incubation, alamarBlue
# From the text: as §1, §2, §3, §4, §5, §6, §7, §8, §9, §10
# HUVEC = assay: as above
# From the text: as §1, §2, §3, §4, §5, §6, §7, §8, §9, §10
# Hep 3B = assay: Cytotoxicity Assays Method A (alamarBlue anti-proliferative assay), Hep 3B
# From the text: as §1, §2, §3, §4, §5, §6, §7, §8, §9, §10
# HT-29 = assay: Cytotoxicity Assays Method A (alamarBlue anti-proliferative assay), HT-29
# From the text: as §1, §2, §3, §4, §5, §6, §7, §8, §9, §10
# lung carcinoma (A-549) = assay: Cytotoxicity Assays Method C, A-549; conditions: read-out: IC50 A549
# [4] = system: ileocecal carcinoma (HCT-8); assay: Cytotoxicity Assays Method C, HCT-8; conditions: Homo sapiens, HCT-8, 72 h, read-out: IC50 HCT-8
# [5] = system: Human promyeloid leukemia HL-60 cells; assay: Cytotoxicity Assays Method B (MTT proliferation assay), HL-60; conditions: Homo sapiens, read-out: IC50 (concentration at which 50% of the cells are inhibited from growing)
# Procedure: Cytotoxicity Assays Method B (HL-60) [H. M. Chen et al. Chin. Pharm. J. 53, 157-167 (2001)]
# Human promyeloid leukemia HL-60 cells were obtained from the American Type
# Culture Collection (Manassas, Va., USA) and the Culture Collection and Research Center(CCRC) (Tai wan, ROC). Human promyeloid leukemia HL-60 cells were cultured in suspension in RPMI-1640 medium (GIBCO, Grand Is land, USA), containing 10% fetal bovine se rum (GIBCO, Grand Is land, USA), 100 unit/mL penicillin, […] streptomycin and 1% L-glutamine at 37° C. in a humidified atmosphere of 5% CO2 in air. Cells were split every day to maintain the cell numbers between 2−5×10^5/mL. Cell numbers were assessed by the standard procedure of leukocyte counting using a hemocytometer and cell viability was checked by the ability of cells to exclude Trypan blue.
# Cellular proliferation was determined by the MTT [3-(4,5-dimethylthiazol-2-yl)-2,5-diphenyltetrazolium bromide] as say. Briefly, […] of MTT (5 mg/mL) was added to each well of 96-well plates containing 1×10^5 cells after treatment with different concentrations of samples for 4 days. The reaction was stopped after 2 h by adding […] of 0.04 N HCl in isopropanol and the OD570 nm was determined by a minicolorimetric reader. Each concentration treatment was performed in triplicate.
# NCI-H460 = assay: Cytotoxicity Assays Method A (alamarBlue anti-proliferative assay), NCI-H460
# From the text: as §1, §2, §3, §4, §5, §6, §7, §8, §9, §10
# prostate cancer (PC-3) = assay: Cytotoxicity Assays Method C, PC-3; conditions: for IC50: read-out: IC50 PC-3; for activity against the androgen-insensitive prostate cancer cell line PC-3 (in words): PC-3, summary of Table 3
# [6] = 96 h, HL-60, MTT, treatment for 4 days
smiles,measurement,setting,value
"CC(OC(=O)CCC(=O)O)c1cc2c(s1)C(=O)c1sccc1C2=O (stereo not drawn) [IIb-1, Mono-[1-(4,8-dioxo-4,8-dihydrobenzo[1,2-b:5,4-b′]dithiophen-2-yl)-ethyl]succinate]",IC50,"[1]; Homo sapiens, KBVIN, 72 h",250 nM
same,activity against the MDR cell line KB-VIN (in words),[1],potent activity
same,IC50,[2]; 72 h,470 nM
same,IC50,"MCF-7; Homo sapiens, MCF7, 72 h, read-out: IC50 (50% Inhibition Concentration)",820 nM
same,CC50,"MCF-7; Homo sapiens, MCF7, MCF-7, 72-hour incubation, alamarBlue, read-out: LC50 (50% Lethal Concentration)",27000 nM
same,TGI (Total growth Inhibition),"MCF-7; MCF-7, 72-hour incubation, alamarBlue",4700 nM
same,cytotoxicity against MCF-7 (in words),"MCF-7; MCF-7, summary of Table 1",significant activity
same,LC50 (50% lethal concentration) at 72 h,[3],89000 nM
same,TGI (Total growth Inhibition),"HUVEC; 72-hour incubation, alamarBlue",31000 nM
same,IC50,"HUVEC; Homo sapiens, 72 h, read-out: IC50 (50% Inhibition Concentration)",11000 nM
same,cytotoxicity against Hep3B (in words),"Hep 3B; Hep3B, summary of Table 1",significant activity
same,TGI (Total growth Inhibition),"Hep 3B; Hep-3B, 72-hour incubation, alamarBlue",1800 nM
same,IC50,"Hep 3B; Homo sapiens, Hep3B, 72 h, read-out: IC50 (50% Inhibition Concentration)",1100 nM
same,CC50,"Hep 3B; Homo sapiens, Hep3B, Hep-3B, 72-hour incubation, alamarBlue, read-out: LC50 (50% Lethal Concentration)",2900 nM
same,TGI (Total growth Inhibition),"HT-29; HT-29, 72-hour incubation, alamarBlue",2000 nM
same,IC50,"HT-29; Homo sapiens, HT-29, 72 h, read-out: IC50 (50% Inhibition Concentration)",4300 nM
same,LC50 (50% lethal concentration),"HT-29; Homo sapiens, HT-29, 72-hour incubation, alamarBlue",89000 nM
same,IC50,"lung carcinoma (A-549); Homo sapiens, A549, 72 h",580 nM
same,IC50,[4],910 nM
same,IC50,"[5]; HL-60, 96 h",260 nM
same,IC50,"NCI-H460; Homo sapiens, NCI-H460, 72 h, read-out: IC50 (50% Inhibition Concentration)",640 nM
same,CC50,"NCI-H460; Homo sapiens, NCI-H460, 72-hour incubation, alamarBlue, read-out: LC50 (50% Lethal Concentration)",2100 nM
same,TGI (Total growth Inhibition),"NCI-H460; NCI-H460, 72-hour incubation, alamarBlue",1200 nM
same,IC50,prostate cancer (PC-3); 72 h,220 nM
same,activity against the androgen-insensitive prostate cancer cell line PC-3 (in words),prostate cancer (PC-3),potent activity
"CC(OC(=O)CCCC(=O)O)c1cc2c(s1)C(=O)c1ccsc1C2=O (stereo not drawn) [VII-2, Mono-[1-(4,8-dioxo-4,8-dihydroxybenzo[1,2-b;4,5-b′]dithiophen-2-yl)-ethyl]pentanedioate]",IC50,[1],240 nM
same,activity against the MDR cell line KB-VIN (in words),[1],potent activity
same,IC50,[2]; 72 h,80 nM
same,IC50,"lung carcinoma (A-549); Homo sapiens, A549, 72 h",510 nM
same,IC50,[4],480 nM
same,IC50,[5]; [6],280 nM
same,IC50,prostate cancer (PC-3); 72 h,60 nM
same,activity against the androgen-insensitive prostate cancer cell line PC-3 (in words),prostate cancer (PC-3),potent activity
"CC(OCC(=O)O)c1cc2c(s1)C(=O)c1ccsc1C2=O (stereo not drawn) [IX, 1-(4,8-Dioxo-4,8-dihydroxybenzo[1,2-b:4,5-b′]-dithiophen-2-yl-ethoxy)-acetic acid]",IC50,[1],18200 nM
same,IC50,"[2]; KB, 50% reduction in cell number after 72 hr of incubation",19800 nM
same,IC50,"lung carcinoma (A-549); A549, 50% reduction in cell number after 72 hr of incubation",2600 nM
same,IC50,"[4]; HCT-8, 50% reduction in cell number after 72 hr of incubation",240 nM
same,IC50,[5]; [6],2580 nM
same,IC50,"prostate cancer (PC-3); PC-3, 50% reduction in cell number after 72 hr of incubation",2510 nM
